Test results as given in PubChem BioAssay (NCI).
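Cultured in 96-well plates, cells were exposed to test compound for 48 hours across five concentrations. Abbreviation: GI50, concentration required for 50% inhibition of growth. TGI: concentration producing complete growth inhibition.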

Assays:
Experiment in all cases: NCI anticancer screen, dose series, 48 h
[1] = tested on: HL-60(TB) leukemia
[2] = tested on: A549 NSCLC
[3] = tested on: LOX IMVI melanoma
[4] = tested on: NCI-H522 lung
[5] = tested on: SW-620 colon
[6] = tested on: BT-549 breast
[7] = tested on: SK-MEL-2 melanoma
[8] = tested on: SNB-19 CNS
[9] = tested on: OVCAR-3 ovarian
[10] = tested on: MDA-MB-231 breast
[11] = tested on: HT29 colon
[12] = tested on: NCI-H460 lung
[13] = tested on: MDA-MB-435
[14] = tested on: UACC-257 melanoma
[15] = tested on: TK-10 renal
[16] = tested on: A498 renal
[17] = tested on: NCI-H23 lung
[18] = tested on: CCRF-CEM leukemia
[19] = tested on: SNB-75 CNS
[20] = tested on: MOLT-4 leukemia
[21] = tested on: HOP-92 NSCLC
[22] = tested on: EKVX NSCLC
[23] = tested on: RXF 393 renal
[24] = tested on: SK-MEL-5 melanoma
[25] = tested on: NCI-H226 lung
[26] = tested on: SK-MEL-28 melanoma
[27] = tested on: M14 melanoma
[28] = tested on: OVCAR-4 ovarian
[29] = tested on: SK-OV-3 ovarian
[30] = tested on: SR leukemia
[31] = tested on: ACHN renal
[32] = tested on: OVCAR-8 ovarian
[33] = tested on: RPMI-8226 leukemia
[34] = tested on: IGROV1 ovarian
[35] = tested on: SN12C renal
[36] = tested on: SF-268 CNS
[37] = tested on: U251 CNS
[38] = tested on: SF-539 CNS
[39] = tested on: DU-145 prostate
[40] = tested on: HOP-62 NSCLC
[41] = tested on: HCT-15 colon
[42] = tested on: KM12 colon
[43] = tested on: MALME-3M melanoma
[44] = tested on: K-562 leukemia
[45] = tested on: T-47D breast
[46] = tested on: CAKI-1 renal
[47] = tested on: HCT-116 colon
[48] = tested on: HS 578T breast
[49] = tested on: SF-295 CNS
[50] = tested on: 786-0 renal
[51] = tested on: COLO 205 colon
[52] = tested on: UO-31 renal
[53] = tested on: UACC-62 melanoma
[54] = tested on: OVCAR-5 ovarian
[55] = tested on: NCI/ADR-RES ovarian
[56] = tested on: PC-3 prostate
[57] = tested on: HCC-2998 colon
[58] = tested on: MCF7 breast

CCOC(=O)c1c(C)n(Cc2ccc(Cl)cc2Cl)c2c1c(CN(C)C)c(O)c1[nH]cnc12
GI50 [1]: 2.01 µM | TGI [1]: 8.33 µM | GI50 [2]: 15.9 µM | TGI [2]: 32.5 µM | GI50 [3]: 15.7 µM | TGI [3]: 29.1 µM | GI50 [4]: 17.1 µM | TGI [4]: 33.4 µM | GI50 [5]: 20.1 µM | TGI [5]: 34.3 µM | GI50 [6]: 23.6 µM | TGI [6]: 48.5 µM | GI50 [7]: 19.9 µM | TGI [7]: 39.8 µM | GI50 [8]: 18.4 µM | TGI [8]: 32.3 µM | GI50 [9]: 17.3 µM | TGI [9]: 33.5 µM | GI50 [10]: 16.3 µM | TGI [10]: 31.9 µM | GI50 [11]: 18 µM | TGI [11]: 31.8 µM | GI50 [12]: 15.3 µM | TGI [12]: 28.7 µM | GI50 [13]: 23.6 µM | TGI [13]: 51.1 µM | GI50 [14]: 20.5 µM | TGI [14]: 39.5 µM | GI50 [15]: 22.7 µM | TGI [15]: 39.1 µM | GI50 [16]: 20 µM | TGI [16]: 35 µM | GI50 [17]: 0.271 µM | TGI [17]: 5.95 µM | GI50 [18]: 2.37 µM | TGI [18]: 8.18 µM | GI50 [19]: 3.55 µM | TGI [19]: 17 µM | GI50 [20]: 0.908 µM | TGI [20]: 4.52 µM | GI50 [21]: 2.74 µM | TGI [21]: 13.3 µM | GI50 [22]: 22.5 µM | TGI [22]: 42.9 µM | GI50 [23]: 14.7 µM | TGI [23]: 28.7 µM | GI50 [24]: 17.2 µM | TGI [24]: 30.9 µM | GI50 [25]: 17.8 µM | TGI [25]: 33.4 µM | GI50 [26]: 20.9 µM | TGI [26]: 41 µM | GI50 [27]: 24.2 µM | TGI [27]: 43.9 µM | GI50 [28]: 16.7 µM | TGI [28]: 85.7 µM | GI50 [29]: 27.3 µM | TGI [29]: 43.6 µM | GI50 [30]: 0.557 µM | TGI [30]: 4.76 µM | GI50 [31]: 15.4 µM | TGI [31]: 28.7 µM | GI50 [32]: 15.1 µM | TGI [32]: 28.3 µM | GI50 [33]: 7.95 µM | TGI [33]: 22.1 µM | GI50 [34]: 17.1 µM | TGI [34]: 31.5 µM | GI50 [35]: 15.1 µM | TGI [35]: 28.6 µM | GI50 [36]: 15.1 µM | TGI [36]: 28.3 µM | GI50 [37]: 14.8 µM | TGI [37]: 27.9 µM | GI50 [38]: 20.2 µM | TGI [38]: 36.9 µM | GI50 [39]: 17.2 µM | TGI [39]: 30.9 µM | GI50 [40]: 12.8 µM | TGI [40]: 29.5 µM | GI50 [41]: 15.5 µM | TGI [41]: 28.9 µM | GI50 [42]: 17.8 µM | TGI [42]: 35.8 µM | GI50 [43]: 21.2 µM | TGI [43]: 42.9 µM | GI50 [44]: 3.22 µM | TGI [44]: 15.5 µM | GI50 [45]: 3.55 µM | TGI [45]: 15.2 µM | GI50 [46]: 18.4 µM | TGI [46]: 37.9 µM | GI50 [47]: 19 µM | TGI [47]: 33 µM | GI50 [48]: 29.1 µM | TGI [48]: 81.8 µM | GI50 [49]: 28.1 µM | TGI [49]: 65 µM | GI50 [50]: 20.1 µM | TGI [50]: 41.4 µM | GI50 [51]: 20.1 µM | TGI [51]: 37.7 µM | GI50 [52]: 18.9 µM | TGI [52]: 36.5 µM

O=C(c1ccc(N=Cc2ccccc2O)cc1)c1ccc(N=Cc2ccccc2O)cc1
TGI [1]: > 100 µM | TGI [2]: > 100 µM | TGI [3]: > 100 µM | TGI [4]: > 100 µM | TGI [5]: > 100 µM | TGI [6]: > 100 µM | TGI [7]: > 100 µM | TGI [8]: > 100 µM | TGI [9]: > 100 µM | TGI [53]: > 100 µM | TGI [10]: > 100 µM | TGI [11]: > 100 µM | TGI [12]: > 100 µM | TGI [13]: > 100 µM | TGI [15]: > 100 µM | TGI [16]: > 100 µM | TGI [17]: > 100 µM | TGI [19]: > 100 µM | TGI [20]: > 100 µM | TGI [21]: > 100 µM | TGI [22]: > 100 µM | TGI [23]: > 100 µM | TGI [54]: > 100 µM | TGI [24]: > 100 µM | TGI [25]: > 100 µM | TGI [26]: > 100 µM | TGI [27]: > 100 µM | TGI [28]: > 100 µM | TGI [29]: > 100 µM | TGI [30]: > 100 µM | TGI [31]: > 100 µM | TGI [55]: > 100 µM | TGI [33]: > 100 µM | TGI [34]: > 100 µM | TGI [56]: > 100 µM | TGI [36]: > 100 µM | TGI [57]: > 100 µM | TGI [37]: > 100 µM | TGI [38]: > 100 µM | TGI [39]: > 100 µM | TGI [40]: > 100 µM | TGI [41]: > 100 µM | TGI [42]: > 100 µM | TGI [43]: > 100 µM | TGI [44]: > 100 µM | TGI [45]: > 100 µM | TGI [46]: > 100 µM | TGI [47]: > 100 µM | TGI [49]: > 100 µM | TGI [58]: > 100 µM | TGI [50]: > 100 µM | TGI [51]: > 100 µM | TGI [52]: > 100 µM

COc1ccc(-c2n[nH]nc2-c2cc(OC)c(OC)c(OC)c2)cc1
GI50 [1]: < 0.01 µM | TGI [1]: < 0.01 µM | GI50 [2]: < 0.01 µM | TGI [2]: 38.3 µM | GI50 [3]: < 0.01 µM | TGI [3]: > 57 µM | GI50 [4]: < 0.01 µM | TGI [4]: < 0.01 µM | GI50 [5]: < 0.01 µM | TGI [5]: > 100 µM | GI50 [7]: < 0.01 µM | TGI [7]: 43.4 µM | TGI [8]: > 100 µM | GI50 [9]: < 0.01 µM | TGI [9]: < 0.01 µM | GI50 [53]: < 0.01 µM | TGI [53]: 24.6 µM | GI50 [11]: < 0.01 µM | TGI [11]: 0.0481 µM | GI50 [12]: < 0.01 µM | TGI [12]: 26.3 µM | GI50 [13]: < 0.01 µM | TGI [13]: < 0.01 µM | GI50 [14]: < 0.01 µM | TGI [14]: 31.2 µM | TGI [15]: 50.2 µM | GI50 [16]: < 0.01 µM | TGI [16]: < 0.0277 µM | GI50 [17]: < 0.01 µM | TGI [17]: 36.4 µM | GI50 [18]: < 0.01 µM | TGI [18]: > 40.8 µM | GI50 [19]: < 0.01 µM | TGI [19]: 92.9 µM | GI50 [20]: 0.0185 µM | GI50 [21]: < 0.0195 µM | TGI [21]: 30.6 µM | GI50 [22]: < 0.01 µM | TGI [22]: 29.6 µM | GI50 [23]: < 0.01 µM | TGI [23]: 26.2 µM | GI50 [54]: < 0.01 µM | TGI [54]: > 100 µM | GI50 [24]: < 0.01 µM | TGI [24]: 0.0224 µM | GI50 [25]: < 0.0225 µM | TGI [25]: 82.7 µM | GI50 [27]: < 0.01 µM | TGI [27]: 17.8 µM | GI50 [28]: < 0.0144 µM | TGI [28]: 43.3 µM | GI50 [29]: < 0.01 µM | TGI [29]: 0.44 µM | GI50 [30]: < 0.01 µM | TGI [30]: > 47.9 µM | GI50 [31]: 0.0169 µM | TGI [31]: > 100 µM | GI50 [32]: < 0.01 µM | TGI [32]: 22 µM | GI50 [33]: < 0.01 µM | TGI [33]: > 32.4 µM | GI50 [34]: < 0.01 µM | TGI [34]: 9.23 µM | GI50 [56]: 0.0638 µM | TGI [56]: > 100 µM | GI50 [35]: < 0.01 µM | TGI [35]: > 100 µM | GI50 [36]: 0.0156 µM | TGI [36]: > 100 µM | GI50 [57]: 0.0189 µM | TGI [57]: 19.5 µM | GI50 [37]: < 0.01 µM | GI50 [40]: < 0.01 µM | TGI [40]: > 73.2 µM | GI50 [41]: < 0.01 µM | TGI [41]: > 100 µM | GI50 [42]: < 0.01 µM | TGI [42]: 0.0445 µM | GI50 [44]: < 0.01 µM | TGI [44]: > 100 µM | GI50 [45]: 2.66 µM | TGI [45]: 57.3 µM | GI50 [46]: < 0.01 µM | TGI [46]: > 56.4 µM | GI50 [47]: < 0.01 µM | TGI [47]: > 100 µM | GI50 [48]: < 0.01 µM | TGI [48]: > 83.9 µM | GI50 [49]: < 0.01 µM | TGI [49]: > 100 µM | GI50 [58]: < 0.01 µM | TGI [58]: > 80.7 µM | GI50 [50]: < 0.01 µM | TGI [50]: 17.5 µM | GI50 [51]: 0.0358 µM | TGI [51]: 0.132 µM | GI50 [52]: 0.207 µM | TGI [52]: 28 µM
